Experimental findings from patent publication US20070112077A1, “Des-C,D analogs of 1alpha,25-dihydroxy-19-norvitamin D3” (Wisconsin Alumni Research Foundation, priority 2005, published 2007) are described below.

For experiment [1], the system named is 24-hydroxylase (24Ohase) gene promoter in ROS 17/2.8 (bone) cells. Put plainly: In vitro transcription assay (24-hydroxylase gene promoter, luciferase reporter). It counts as cell-based. Particulars: ROS 17/2.8 cells, FIG. 3. How it is done: FIG. 3 is a graph comparing the in vitro transcription activity of Des-C, D with that of 1,25(OH)2D3.
Transcription activity was measured in ROS 17/2.8 (bone) cells that were stably transfected with a 24-hydroxylase (240hase) gene promoter upstream of a luciferase reporter gene (Arbour et al., 1998). Cells were given a range of doses. Sixteen hours after dosing the cells were harvested and luciferase activities were measured using a luminometer. RLU=relative luciferase units.

Experiment [2] has as its system Human promyelocytic leukemia (HL60) cells. Put plainly: HL-60 differentiation (nitro blue tetrazolium reduction). It counts as cell-based. To be noted: FIG. 2. How it is done: FIG. 2 is a graph comparing the percent HL-60 cell differentiation as a function of the concentration of Des-C,D with that of 1,25(OH)2D3.
The study drugs were dissolved in ethanol and the concentrations determined using UV spectrophotometry. Serial dilutions were prepared so that a range of drug concentrations was tested without changing the final concentration of ethanol (≦0.2%) present in the cell cultures.
Human promyelocytic leukemia (HL60) cells were grown in RPMI-1640 medium containing 10% fetal bovine serum. The cells were incubated at 37° C. in the presence of 5% CO2.
HL60 cells were plated at 1.2 x 10^5cells/mL. Eighteen hours after plating, cells in duplicate were treated with drug. Four days later, the cells were harvested and a nitro blue tetrazolium reduction assay was performed (Collins et al., 1979; J. Exp. Med. 149:969-974). The percentage of differentiated cells was determined by counting a total of 200 cells and recording the number that contain intracellular black-blue formazan deposits. Verification of differentiation to monocytic cells was determined by measuring phagocytic activity.

Another experiment has as its system Sprague-Dawley rats. Put plainly: Bone calcium mobilization (serum calcium). Particulars: even at the very high dose; four consecutive ip doses; FIG. 4. Format: in vivo, rat. An excerpt:
FIG. 4 is a bar graph comparing the bone calcium mobilization activity of Des-C,D with that of 1,25(OH)2D3.
Male, weanling Sprague-Dawley rats were placed on Diet 11 (Suda et al. J. Nutr. 100:1049, 1970) (0.47% Ca) diet +vitamins AEK for one week followed by Diet 11 (0.02% Ca) +AEK for 3 weeks. The rats were then switched to a diet containing 0.47% Ca for one week followed by two weeks on a diet containing 0.02% Ca. Dose administration began during the last week on 0.02% calcium diet. Four consecutive ip doses were given approximately 24 hours apart. Twenty-four hours after the last dose, blood was collected from the severed neck and the concentration of serum calcium was determined as a measure of bone calcium mobilization. The first 10 cm of the intestine was also collected for intestinal calcium transport analysis using the everted gut sac method. Antagonism was tested by administering a combination of 1,25(OH)2D3 and the compound to the animal simultaneously.

Experiment [3] addresses T1, full-length recombinant rat vitamin D receptor (Rattus norvegicus, UniProt P13053).
T1 construct: Full-length recombinant rat receptor was expressed in E. coli; histidine tag (C); made in house; host or cells: E. coli BL21 (DE3) Codon Plus RIL
T1 sequence (P13053 1-423): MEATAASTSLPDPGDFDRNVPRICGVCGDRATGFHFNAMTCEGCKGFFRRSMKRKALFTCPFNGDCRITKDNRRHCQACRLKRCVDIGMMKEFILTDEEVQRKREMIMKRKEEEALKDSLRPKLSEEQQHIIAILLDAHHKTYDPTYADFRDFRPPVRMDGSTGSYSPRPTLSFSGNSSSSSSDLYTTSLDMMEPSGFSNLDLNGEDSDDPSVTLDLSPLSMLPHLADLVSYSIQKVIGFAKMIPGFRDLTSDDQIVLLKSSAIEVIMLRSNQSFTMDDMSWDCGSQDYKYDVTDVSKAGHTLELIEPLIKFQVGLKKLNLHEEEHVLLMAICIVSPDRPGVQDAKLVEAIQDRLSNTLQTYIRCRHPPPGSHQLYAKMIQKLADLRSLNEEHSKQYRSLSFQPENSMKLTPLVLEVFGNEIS
In words: Vitamin D receptor binding, competition with [3H]-1,25-(OH)2-D3. Particulars: competition with [3H]-1,25-(OH)2-D3, FIG. 1. From the text:
FIG. 1 is a graph comparing the relative activity of Des-C,D and 1,25(OH)2D3 to compete for binding with [^3H]-1 ,25-(OH)2-D3 to the full-length recombinant rat vitamin D receptor.
Full-length recombinant rat receptor was expressed in E. coli BL21 (DE3) Codon Plus RIL cells and purified to homogeneity using two different column chromatography systems. The first system was a nickel affinity resin that utilizes the C-terminal histidine tag on this protein. The protein that eluted from this resin was further purified using ion exchange chromatography (S-Sepharose Fast Flow). Aliquots of the purified protein were quick frozen in liquid nitrogen and stored at −80° C. until use. For use in binding assays, the protein was diluted in TEDK50 (50 mM Tris, 1.5 mM EDTA, pH 7.4, 5 mM DTT, 150 mM KCI) with 0.1% Chaps detergent. […]
Unlabeled ligands were dissolved in ethanol and the concentrations were determined using UV spectrophotometry (1,25(OH)2D3: molar extinction coefficient=18,200 and λmax=265 nm). […]
Radiolabeled and unlabeled ligands were added to 100 mcl of the diluted protein at a final ethanol concentration of ≦10%, mixed and incubated overnight on ice to reach binding equilibrium. […] Total binding was determined from the tubes containing only radiolabeled ligand.

For the compound `C=C1[C@H](O)CC(=C/C=C/CCC[C@@H](C)CCCC(C)(C)O)C[C@H]1O` [Des-C,D], the “activity in causing transcription compared with 1,25-(OH)2D3” value in experiment [1] is on record as “does not show as much activity in causing transcription as 1,25-(OH)2D3”. In addition, the “activity in inducing differentiation of HL-60 cells compared with 1,25-(OH)2D3” value in experiment [2] is recorded as “does not show as much activity as 1,25-(OH)2D3”. The “bone calcium mobilizing activity” value with Sprague-Dawley rats was “no measureable bone calcium mobilizing activity”. In addition, the “binding to the vitamin D receptor compared with 1,25-(OH)2D3” value in experiment [3] is on record as “does not bind to the vitamin D receptor as strongly as the native hormone 1,25-(OH)2D3”.
